Here are results for one molecule from patent US9475795B2 (TAKEDA PHARMACEUTICAL COMPANY LIMITED, priority 2012, dated 2016).

pIC50: −log10 of the molar value.

As a reminder, the pIC50 is −log10 of the IC50, conventionally taken in molar units.

The assay deals with human PKR1 receptors (Homo sapiens (Human), UniProt Q8TCW9). The assay is described as follows: PKR1 antagonist assay: block of PK1-mediated intracellular calcium release (FLIPR). The class given is cell-based. The conditions noted are these: RBL2H3 cells expressing human PKR1; 10 min preincubation; stimulation with PK1 at EC80; calcium fluorescence. The procedure:
Prokineticin receptor 1 (PKR1) antagonists may be functionally assessed by measurement of change in intracellular calcium levels induced by Gq mediated increase in inositol triphosphate (IP3) levels. The ability of a compound to block the intracellular release of calcium mediated by PK1 in RBL2H3 cells expressing human PKR1 receptors is determined as a measure of the compound's antagonist activity in vitro.
Approximately 10,000 cells per assay well are seeded in normal culture medium in a 384 well plate (Corning). […]
To test for antagonist activity, test compounds at a final concentration range between 0.32 nM-10 μM (diluted in assay buffer) are added to the assay wells and allowed to incubate for 10 minutes prior to stimulation with PK1. After incubation with test compounds the assay plate is placed in a FLIPR Tetra (Molecular Devices) and PK1 (diluted in assay buffer) is added at the determined EC80 concentration (final). Ligand-dependent changes in intracellular calcium levels are determined by measuring changes in fluorescence of the dye at […] following excitation at 485 nm.
Background: Calcium flux is commonly read through the fluorescence of an indicator in the cells.

human PKR1 receptors, sequence (Q8TCW9 whole entry): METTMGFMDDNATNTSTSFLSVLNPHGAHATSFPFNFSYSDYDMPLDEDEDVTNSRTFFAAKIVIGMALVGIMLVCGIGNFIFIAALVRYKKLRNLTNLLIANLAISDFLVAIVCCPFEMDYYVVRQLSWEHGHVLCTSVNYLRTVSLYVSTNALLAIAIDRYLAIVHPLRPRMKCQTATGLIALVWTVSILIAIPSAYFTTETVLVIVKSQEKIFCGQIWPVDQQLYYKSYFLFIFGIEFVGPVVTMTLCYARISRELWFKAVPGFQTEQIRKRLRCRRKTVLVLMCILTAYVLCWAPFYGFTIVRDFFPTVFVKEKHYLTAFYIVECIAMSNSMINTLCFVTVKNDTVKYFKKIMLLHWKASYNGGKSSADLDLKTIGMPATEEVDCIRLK

On to `Cc1nn(C)c(C)c1S(=O)(=O)N1CCC(N(C)c2ccc(Cl)cc2)CC1` [Example 53], for which the pIC50 is 6.05.
